From patent US9198967B2, “Pharmaceutical compositions active in preventing, stabilizing and treating Alzheimer's disease” (priority 2009, dated 2015)

System: fusiform erythrocytes (FE)
Assay: FE percentage by Nomarski microscopy on 400 erythrocytes, 6-month clinical study
Type: in vivo, human
Details: 6 months
Experimental: The effect of the composition of the invention on FE is measured by the percentage difference in fusiform erythrocytes present in the patient's blood before and after treatment with the composition of the invention.
During the assessments blood was collected, after fasting since the previous evening, into heparinized and non-heparinized tubes. Aliquots of 5 ml were collected (2 of plasma and 1 of serum) from the brachial vein. The collected blood was immediately centrifuged and kept at −80° C. until required for the measurements. A fourth aliquot of 2 ml, without heparin, was collected for FE analysis.
FE measurements were carried out by isolating the erythrocyte pellet by centrifugation (100×g for 15 minutes at 4° C.) and diluting it in 2 ml of a citrate-phosphate-dextrose solution with adenine (CPDA) then centrifuged once more.
After centrifugation the upper part of the solution was removed and the process repeated three times always resuspending with CPDA.
Immediately after the last preparation, FE percentage was calculated using a microscope with Nomarski optics based on an analysis of 400 erythrocytes [Mohanty J G, Eckley D M, J D Williamson et al. Do red blood cell-β-amyloid interaction alter oxygen delivery in Alzheimer's disease? Adv Exp Med Biol 2008; 614:29-35.]

**Q.** Which “effect on the number of FE (in words)” value does the source give for `COc1cc2c(cc1OC)C(=O)C(CC1CCN(Cc3ccccc3)CC1)C2` (stereo not shown) [Donepezil] here?
**A.** improvement in the FE
